Legend:
[1] = test system: T-Rex 293 cell line SC3 cells having increased expression of androgen receptor protein due to exposure to doxycycline; assay: Cellular growth inhibition, T-Rex 293 SC3 cells with doxycycline (androgen receptor induced), CellTiter-Glo; type: cell-based; conditions: T-Rex 293 SC3 cells with 10 ng/mL doxycycline (increased androgen receptor expression), 72 hours
Method in brief: (§1)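 Doxycycline-inducible androgen receptor T-Rex 293 clone SC3, seeded at 2500/well in phenol red-free DMEM with 10% charcoal-dextran FBS, without doxycycline or with 10 ng/mL to induce receptor. Compound added after 24 h (0.5% DMSO), 72 h at 37 °C; CellTiter-Glo 2.0 luminescence, GI50 by four-parameter fit.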

[2] = test system: T-Rex 293 cell line SC3 cells lacking increased expression of androgen receptor protein; assay: Cellular growth inhibition, T-Rex 293 SC3 cells without doxycycline, CellTiter-Glo; type: cell-based; conditions: T-Rex 293 SC3 cells not exposed to doxycycline; 72 hours; CellTiter-Glo 2.0
Method in brief: as §1

[3] = test system: VCaP cells; assay: Cellular growth inhibition assay for VCaP cells, CellTiter-Glo; type: cell-based, human; conditions: 72 hours treatment, CellTiter-Glo 2.0
Method in brief: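 GI50 values come from four-parameter curve fits of luminescence data normalized to a zero baseline. Compound, in medium with 0.5% DMSO, was added one day after plating and left for 72 h before CellTiter-Glo 2.0 addition.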

Measured: GI50

Cc1sc2c(c1C)C(c1ccc(N3CC(N4CCN(c5ncc(C(=O)N[C@H]6C(C)(C)[C@H](Oc7ccc(C#N)c(Cl)c7)C6(C)C)cn5)CC4)C3)cc1)=NC(Cc1ncco1)c1nnc(C)n1-2 (stereo partly drawn) [Compound I-208]
< 500 nM: [1] | [2] | [3]; Homo sapiens, VCaP, 72 h

Cc1sc2c(c1C)C(c1ccc(CC3CC4(CCN(c5ccc(C(=O)N[C@H]6C(C)(C)[C@H](Oc7ccc(C#N)c(Cl)c7)C6(C)C)cn5)CC4)C3)cc1)=N[C@@H](Cc1ncco1)c1nnc(C)n1-2 [Compound I-143]
< 500 nM: [1] | [2] | [3]

— patent US20260062422A1 (Halda Therapeutics OpCo, Inc., priority 2022, published 2026)
